Data set [1] in a line: Plasma Stability Assay (human plasma). It is filed as in vitro ADME. The conditions noted are these: both sexes; pooled human plasma, heparin, final conc. 2 μM, 37° C., 0-120 min; read-out: Human Plasma Stability t1/2. The protocol:
This Example illustrates that exemplary compounds of the present invention is cleavage in human plasma.
(§1) Test Compounds and Stock Solutions: Stock Conc. 10 mM; Final Conc. 2 μM
(§2) Test Compound and Control Working Solution Preparation:
• Test compound intermediate solution: 10 μL of compound stock solution (10 mM in dimethyl sulfoxide (DMSO)) were diluted with 90 μL of DMSO (intermediate solution concentration: 1 mM, 100% DMSO) • Control intermediate solution: 10 μL of control stock solution (10 mM in dimethyl sulfoxide (DMSO)) were diluted with 90 μL of DMSO (intermediate solution concentration: 1 mM, 100% DMSO) • Species/Matrix: Human Plasma • No. of Individuals: 3 Male & 3 Female • Anticoagulant Used: Heparin
• The pooled frozen plasma was thawed in a water bath at 37° C. prior to experiment. Plasma was centrifuged at 4000 rpm for 5 min and the clots were removed if any. • Using an Apricot automation workstation, 98 μL/well of blank plasma were added to all 96-well reaction plates. (Blank, T0, T10, T30, T60 and T120) • An Apricot automation workstation was used to add 2 μL/well of working solution (100 μM) to all reaction plates except Blank. (T0, T10, T30, T60 and T120) • All reaction plates containing mixtures of compound and plasma were incubated at 37° C. in water bath. • The reaction plates were incubated at 37° C., and timer was started. • At the end of incubation, added 500 μL of stop solution (200 ng/mL tolbutamide and 200 ng/mL labetalol in ACN) to precipitate protein. Mixed thoroughly. • Each plate was sealed and shaken for 20 minutes. • After shaking, each plate was centrifuged at 4000 rpm and 4° C. for 20 minutes • After centrifugation, an Apricot automation workstation was used to transfer 50 μL supernatant into 100 μL HPLC water. • Each bioanalysis plate was sealed and shaken for 10 minutes prior to LC-MS/MS analysis Data Analysis • The % remaining of test compound after incubation in blood was calculated using following equation:
(§3) [formula] • where PAR is the peak area ratio of analyte versus internal standard (IS) • The appointed incubation time points are TO (0 min), Tn (n=0, 10, 30, 60 and 120 min)

A short description of data set [2]: Whole Blood Stability Assay (mouse whole blood). It is filed as in vitro ADME. The conditions noted are these: CD-1 mouse blood, EDTA-K2, final conc. 2 μM, 37° C., 0-120 min; for half-life at 2 μM: male, fresh whole blood, read-out: Mouse Whole Blood Stability t1/2. The protocol:
Whole Blood Stability Assay
This Example illustrates that exemplary compounds of the present invention is cleavage in mouse whole blood.
as §1, §2
• Intermediate solution: 5 μL of compound stock solution (10 mM in dimethyl sulfoxide (DMSO)) were diluted with […] of DMSO (intermediate solution concentration: 1 mM, 100% DMSO) • Propantheline bromide (control) intermediate solution: 5 μL of propantheline stock solution (10 mM in ultra-pure water) were diluted with 45 μL of ultra-pure water (intermediate solution concentration: 1 mM) • Working solution 1: 20 μL of test compound intermediate solution (1 mM) were diluted with 180 μL of 45% ACN/H2O (working solution concentration: […], 40.5% ACN, 10% DMSO) • Working solution 2: 20 μL of control intermediate solution (1 mM) were diluted with 180 μL of 45% ACN/H2O (working solution concentration: 100 μM, 40.5% ACN, 10% DMSO) • Species/Matrix: CD-1 Mouse Blood • No. of Individuals: n>3 Male • Anticoagulant Used: EDTA-K2
• The fresh blood was collected on the day of experiment and pre-warmed in a water bath at 37° C. • Using an Apricot automation workstation, 98 μL/well of blank blood were added to all 96-well reaction plates (Blank, T0, T10, T30, T60 and T120). • An Apricot automation workstation was used to add 2 μL/well of working solution (100 μM) to all reaction plates except Blank (T0, T10, T30, T60 and T120). • All reaction plates containing mixtures of compound and blood were incubated at 37° C. in water bath. • The reaction plates were incubated at 37° C., and timer was started. • At the end of incubation, mixed 100 μL water with 100 μL spiked blood samples, then added 800 μL of stop solution (200 ng/mL tolbutamide and 200 ng/mL labetalol in ACN) to precipitate protein. Mixed thoroughly. • Each plate was sealed and shaken for 20 minutes. • After shaking, each plate was centrifuged at 4000 rpm and 4° C. for 20 minutes. • After centrifugation, an Apricot automation workstation was used to transfer 150 μL of supernatant from each reaction plate to its corresponding bioanalysis plate. • Each bioanalysis plate was submitted to LC-MS/MS analysis.
• The % remaining of test compound after incubation in blood was calculated using following equation:
as §3

As for `CCc1c(F)ccc2cc(OC(C)=O)cc(-c3ncc4c(N5C[C@@H]6C[C@H](C5)[C@H](O)C6)nc(OC[C@@]56CCCN5C[C@H](F)C6)nc4c3F)c12` [Example 1, 5-ethyl-6-fluoro-4-(8-fluoro-2-(((2R,7aS)-2-fluorotetrahydro-1H-pyrrolizin-7a(5H)-yl)methoxy)-4-((1R,5R,6R)-6-hydroxy-3-azabicyclo[3.2.1]octan-3-yl)pyrido[4,3-d]pyrimidin-7-yl)naphthalen-2-yl acetate], the half-life at 2 μM in data set [1] is 23 min; in data set [2], 3 min.

For the compound `CCC(=O)Oc1cc(-c2ncc3c(N4C[C@@H]5C[C@H](C4)[C@H](O)C5)nc(OC[C@@]45CCCN4C[C@H](F)C5)nc3c2F)c2c(CC)c(F)ccc2c1` [Example 2, 5-ethyl-6-fluoro-4-(8-fluoro-2-(((2R,7aS)-2-fluorotetrahydro-1H-pyrrolizin-7a(5H)-yl)methoxy)-4-((1R,5R,6R)-6-hydroxy-3-azabicyclo[3.2.1]octan-3-yl)pyrido[4,3-d]pyrimidin-7-yl)naphthalen-2-yl propionate], the half-life at 2 μM in data set [1] was determined as 13 min. Moreover, in data set [2], the “Mouse Whole Blood Stability t1/2” value stood at 1 min.

As for `CCc1c(F)ccc2cc(OC(=O)C(C)C)cc(-c3ncc4c(N5C[C@@H]6C[C@H](C5)[C@H](O)C6)nc(OC[C@@]56CCCN5C[C@H](F)C6)nc4c3F)c12` [Example 3, 5-ethyl-6-fluoro-4-(8-fluoro-2-(((2R,7aS)-2-fluorotetrahydro-1H-pyrrolizin-7a(5H)-yl)methoxy)-4-((1R,5R,6R)-6-hydroxy-3-azabicyclo[3.2.1]octan-3-yl)pyrido[4,3-d]pyrimidin-7-yl)naphthalen-2-yl isobutyrate], the half-life at 2 μM in data set [1] was determined as 27 min; in data set [2], 3 min.

Turning to `CCc1c(F)ccc2cc(OC(=O)C3CC3)cc(-c3ncc4c(N5C[C@@H]6C[C@H](C5)[C@H](O)C6)nc(OC[C@@]56CCCN5C[C@H](F)C6)nc4c3F)c12` [Example 4, 5-ethyl-6-fluoro-4-(8-fluoro-2-(((2R,7aS)-2-fluorotetrahydro-1H-pyrrolizin-7a(5H)-yl)methoxy)-4-((1R,5R,6R)-6-hydroxy-3-azabicyclo[3.2.1]octan-3-yl)pyrido[4,3-d]pyrimidin-7-yl)naphthalen-2-yl cyclopropanecarboxylate], the half-life at 2 μM was determined as 17 min in data set [1] and 5 min in data set [2].

As to `CCc1c(F)ccc2cc(OC(=O)C(C)(C)C)cc(-c3ncc4c(N5C[C@@H]6C[C@H](C5)[C@H](O)C6)nc(OC[C@@]56CCCN5C[C@H](F)C6)nc4c3F)c12` [Example 5, 5-ethyl-6-fluoro-4-(8-fluoro-2-(((2R,7aS)-2-fluorotetrahydro-1H-pyrrolizin-7a(5H)-yl)methoxy)-4-((1R,5R,6R)-6-hydroxy-3-azabicyclo[3.2.1]octan-3-yl)pyrido[4,3-d]pyrimidin-7-yl)naphthalen-2-yl pivalate], the half-life at 2 μM stood at 67 min in data set [1] and 2 min in data set [2].

Turning to `CCc1c(F)ccc2cc(OC(=O)N(C)C)cc(-c3ncc4c(N5C[C@@H]6C[C@H](C5)[C@H](O)C6)nc(OC[C@@]56CCCN5C[C@H](F)C6)nc4c3F)c12` [Example 6, 5-ethyl-6-fluoro-4-(8-fluoro-2-(((2R,7aS)-2-fluorotetrahydro-1H-pyrrolizin-7a(5H)-yl)methoxy)-4-((1R,5R,6R)-6-hydroxy-3-azabicyclo[3.2.1]octan-3-yl)pyrido[4,3-d]pyrimidin-7-yl)naphthalen-2-yl dimethylcarbamate], the half-life at 2 μM in data set [1] and in data set [2] was over 289 min each time.

As for `CCc1c(F)ccc2cc(OC(=O)N3CCCCC3)cc(-c3ncc4c(N5C[C@@H]6C[C@H](C5)[C@H](O)C6)nc(OC[C@@]56CCCN5C[C@H](F)C6)nc4c3F)c12` [Example 7, 5-ethyl-6-fluoro-4-(8-fluoro-2-(((2R,7aS)-2-fluorotetrahydro-1H-pyrrolizin-7a(5H)-yl)methoxy)-4-((1R,5R,6R)-6-hydroxy-3-azabicyclo[3.2.1]octan-3-yl)pyrido[4,3-d]pyrimidin-7-yl)naphthalen-2-yl piperidine-1-carboxylate], the half-life at 2 μM in data set [1] and in data set [2] was over 289 min each time.

For the compound `CCc1c(F)ccc2cc(OC(=O)OC)cc(-c3ncc4c(N5C[C@@H]6C[C@H](C5)[C@H](O)C6)nc(OC[C@@]56CCCN5C[C@H](F)C6)nc4c3F)c12` [Example 9, 5-ethyl-6-fluoro-4-(8-fluoro-2-(((2R,7aS)-2-fluorotetrahydro-1H-pyrrolizin-7a(5H)-yl)methoxy)-4-((1R,5R,6R)-6-hydroxy-3-azabicyclo[3.2.1]octan-3-yl)pyrido[4,3-d]pyrimidin-7-yl)naphthalen-2-yl methyl carbonate], the half-life at 2 μM in data set [1] turned out to be 9 min. Moreover, the “Mouse Whole Blood Stability t1/2” value in data set [2] was determined as 1 min.

With `CCc1c(F)ccc2cc(OC(=O)N(CCOC)CCOC)cc(N3CCc4c(nc(OC[C@@]56CCCN5C[C@H](F)C6)nc4N4CCC[C@]5(C4)NC(=O)NC5=O)C3)c12` [Example 65, 4-(4-((R)-2,4-dioxo-1,3,7-triazaspiro[4.5]decan-7-yl)-2-(((2R,7aS)-2-fluorotetrahydro-1H-pyrrolizin-7a(5H)-yl)methoxy)-5,8-dihydropyrido[3,4-d]pyrimidin-7(6H)-yl)-5-ethyl-6-fluoronaphthalen-2-yl bis(2-methoxyethyl)carbamate], the half-life at 2 μM in data set [1] is over 289 min.

As for `CCc1c(F)ccc2cc(OC(C)=O)cc(N3CCc4c(nc(OCC56CCCN5C/C(=C\F)C6)nc4N4CCC[C@]5(C4)NC(=O)NC5=O)C3)c12` (stereo partly drawn) [Example 72, 4-(4-(CAN-2,4-dioxo-1,3,7-triazaspiro[4.5]decan-7-yl)-2-(((S,Z)-2-(fluoromethylene)tetrahydro-1H-pyrrolizin-7a(5H)-yl)methoxy)-5,8-dihydropyrido[3,4-d]pyrimidin-7(6H)-yl)-5-ethyl-6-fluoronaphthalen-2-yl acetate], the half-life at 2 μM in data set [2] was 2 min.

As for `CCc1c(F)ccc2cc(OC(=O)N3CCCCC3)cc(N3CCc4c(nc(OC[C@@]56CCCN5C/C(=C\F)C6)nc4N4CCC[C@]5(C4)NC(=O)NC5=O)C3)c12` [Example 73, 4-(4-(CAN-2,4-dioxo-1,3,7-triazaspiro[4.5]decan-7-yl)-2-(((S,Z)-2-(fluoromethylene)tetrahydro-1H-pyrrolizin-7a(5H)-yl)methoxy)-5,8-dihydropyrido[3,4-d]pyrimidin-7(6H)-yl)-5-ethyl-6-fluoronaphthalen-2-yl piperidine-1-carboxylate], the half-life at 2 μM in data set [2] was found to be 147 min.

For `CCc1c(F)ccc2cc(OC(=O)C(C)C)cc(N3CCc4c(nc(OCC56CCCN5C/C(=C\F)C6)nc4N4CCC[C@]5(C4)NC(=O)NC5=O)C3)c12` (stereo partly drawn) [Example 76, 4-(4-(CAN-2,4-dioxo-1,3,7-triazaspiro[4.5]decan-7-yl)-2-(((S,Z)-2-(fluoromethylene)tetrahydro-1H-pyrrolizin-7a(5H)-yl)methoxy)-5,8-dihydropyrido[3,4-d]pyrimidin-7(6H)-yl)-5-ethyl-6-fluoronaphthalen-2-yl isobutyrate], the half-life at 2 μM in data set [2] stood at 4 min.

The values above are taken from US20250376483A1, “PRODRUGS OF PAN-KRAS INHIBITORS” (Mirati Therapeutics, Inc., priority 2022, published 2025).
